Measured values taken from patent US20110166097A1, “TAXANE COMPOUNDS FOR TREATING EYE DISEASE” (Osiris Therapeutics, Inc., priority 2008, published 2011).

Legend:
[1] = tested on: choroidal neovascularization lesions; experiment: Lesion study (flat mount evaluation, choroidal neovascularization); format: in vivo, rats; settings: after 21 days
Procedure: In another study, flat mount evaluation of the eyes can be carried out at the end of the study because angiography may not provide a full evaluation of the effect of the drug. At the end of the study, the eyes are removed, histologically processed and all lesions can be seen (including those that can not be detected by angiography). Such an evaluation can be used as a better measure of the choroidal neovascularization model.
Dosages used are 1.5 μg/2 μL, 5.0 μg/2 μL, and 15 μg/2 μL. The treatments also include a vehicle and Kenacort Retard® (4% triamcinolone acetonide). After 21 days, the eyes are removed, histologically processed, and the lesion size scored in μm^3.

[2] = tested on: viable circulating endothelial cell precursors (CEPS); experiment: Cobalamin-paclitaxel bioconjugate dose study: viable circulating endothelial cell precursors; format: in vivo; settings: mice
Procedure: (§1) The effects on counts of viable circulating endothelial cell precursors and white blood cells are measured after 28 days. Corresponding amounts of the cobalamin-paclitaxel bioconjugate, viable circulating endothelial cell precursors (CEPS), and white blood cells are presented in the Table 1:

white blood cells = experiment: Cobalamin-paclitaxel bioconjugate dose study: white blood cell count; format: in vivo; settings: mice, about 2 mg/kg, 28 days
Procedure: as §1

Water solubility = format: physicochemical; settings: conjugated to cobalt atom of cobalamin
[3] = tested on: choroidal neovascularization by laser burns of the eye; experiment: Choroidal neovascularization model (fluorescein angiography leakage score); format: in vivo; settings: rats
Procedure: Groups of 8 rats/dosage group or vehicle are neovascularized by laser burns on the eye. Afterwards, the eye is immediately treated with a cobalamin-paclitaxel bioconjugate prepared in accordance with Example 1 at a dose of 1.5 μg/2 μL, 5.0 μg/2 μL, and 15 μg/2 μL (indicated as B.C. in FIG. 1). The treatment regimen also includes a vehicle and Kenacort Retard® (4% triamcinolone acetonide), as a positive control. Each treatment is scored at 7, 14, and 21 days post-treatment by infusing the eye with fluorescein and scoring the leakage using angiography. A score of 0 indicates no leakage while a score of 3 indicates severe leakage.

[4] = tested on: bFGF-stimulated formation of new blood vessel in the Matrigel plug; experiment: Matrigel plug perfusion in vivo assay; settings: mice, 2, 6 and 30 mg/kg (paclitaxel units), oral gavage
Procedure: A Matrigel® plug perfusion in vivo assay is performed to determine the anti-angiogenic efficacy of the cobalamin-paclitaxel bioconjugate (Cob-Pac) of Example 1. The assay uses Matrigel®, a gelatinous protein mixture secreted by mouse tumor cells (BD Biosciences, San Jose, Calif.), to duplicate tissue environments. Matrigel® is liquid at room temperature, but when injected into the animal, forms a solid plug. If a growth vessel stimulant such as basic fibroblast growth factor (bFGF) is mixed with the Matrigel®, the bFGF stimulates the formation of new blood vessel in the plug, which can be monitored in the animal via fluorescence techniques. In the current study, Matrigel® is injected either alone or with bFGF subcutaneously into mice.

CC(=O)O[C@H]1C(=O)[C@@]2(C)C([C@H](OC(=O)c3ccccc3)[C@]3(O)C[C@H](OC(=O)[C@H](OC(=O)C[NH+](C)CC[CH2][Co+][N]4/C5=C(/C)C6=N/C(=C\C7=NC(=C(/C)C8=NC(C(C)C4C(CC(N)=O)C5(C)CCC(=O)NCC(C)OP(=O)([O-])OC4C(CO)OC(n5cnc9cc(C)c(C)cc95)C4O)C(C)(CC(N)=O)C8CCC(N)=O)/C(C)(CC(N)=O)C7CCC(N)=O)C(C)(C)C6CCC(N)=O)[C@@H](NC(=O)c4ccccc4)c4ccccc4)C(C)=C1C3(C)C)[C@]1(OC(C)=O)COC1C[C@@H]2O.[Cl-] (stereo partly drawn) [cobalamin-paclitaxel bioconjugate, Cbl-(CH2)3N(CH3)CH2COO-2′-PTX]
Number of blood vessel lesions (FIG. 2) ([1]; rats, 1.5, 5.0 and 15 μg/2 μL to the eye): decrease in a concentration dependent manner
Inhibition of new blood vessel growth (lesion study) ([1]; rats, high and medium concentrations (15 and 5.0 μg/2 μL)): efficacious in inhibiting new blood vessel growth
Most effective dose (viable CEPS) ([2]; 28-day dose study, dose as paclitaxel): about 2 mg/kg
Anti-angiogenic effect on viable CEPS ([2]; at each dose (1.5-30 mg/kg), 28 days): marked decrease in viable CEPS
Toxicity by white blood cell count (white blood cells): no neutropenia
solubility (Water solubility): > 100 mg/mL
Anti-angiogenic result by angiography leakage score (FIG. 1) ([3]; after 7 days, intermediate and high doses (5.0 μg/2 μL and 15 μg/2 μL) to the eye): show anti-angiogenic results
Anti-angiogenic result by angiography leakage score (FIG. 1) ([3]; after 14 days, high dose (15 μg/2 μL) to the eye): still provides anti-angiogenic benefit
Effect on growth of new blood vessels in Matrigel plug [4]: inhibits the growth of new blood vessels in each instance shown
